Laboratory results taken from article PMC7606179 (Acta Pharmaceutica Sinica. B, 2020).
“Also recorded” adds a separate entry of the source.

How the values were obtained:
[1] = target: Oseltamivir resistant (with H274Y mutation) neuraminidase (Influenza A virus, UniProt P03468, H260Y); type: biochemical, recombinant PR8 virus with H274Y mutation
[2] = test system: PR8 resistant recombinant virus with H274Y mutation in MDCK cells; type: cell-based

Row | Compound | NA inhibitory activity on oseltamivir resistant NA [1] | further results
1 | COC(=O)C1CC(=O)c2oc(=O)c3cc(O)c(O)c(O)c3c21 (stereo not shown) [B15, Methyl brevifolin carboxylate] | can obviously inhibit NA activities | 
2 | O=c1oc2c(O)c(O)cc3c(=O)oc4c(O)c(O)cc1c4c23 [B21, Ellagic acid] | can obviously inhibit NA activities | 
3 | O=C(/C=C/c1ccc(O)cc1)OC[C@H]1O[C@@H](Oc2c(-c3ccc(O)cc3)oc3cc(O)cc(O)c3c2=O)[C@H](O)[C@@H](O)[C@@H]1O [B23, Tiliroside] |  | Effect on replication of oseltamivir resistant (H274Y) PR8 virus in MDCK cells [2]: obviously reduce; also recorded: greatly reduce
4 | CCOC(=O)C1=C[C@@H](OC(CC)CC)[C@H](NC(C)=O)[C@@H](N)C1 [Oseltamivir] |  | Anti-virus effect on resistant virus with NA H274Y mutation in MDCK cells [2]: didn't show obvious anti-virus effects
